The source made the active and inactive calls.
How the values were obtained:
[1] = target: T1, Heat shock factor protein 1 (Mus musculus, UniProt P38532); assay: HSF1 potentiators in luciferase reporter cells, confirmation, cell-based, NIH3T3, luminescence, dose retest (AID 435004); assay type: functional;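 further: stress induced by proteasome inhibitor MG132 added 30 min after compound; luciferase reporter driven by HSF1 response element in NIH3T3 cells; actives raise luminescence as potentiators of the MG132 stress response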
T1 sequence (P38532 whole entry): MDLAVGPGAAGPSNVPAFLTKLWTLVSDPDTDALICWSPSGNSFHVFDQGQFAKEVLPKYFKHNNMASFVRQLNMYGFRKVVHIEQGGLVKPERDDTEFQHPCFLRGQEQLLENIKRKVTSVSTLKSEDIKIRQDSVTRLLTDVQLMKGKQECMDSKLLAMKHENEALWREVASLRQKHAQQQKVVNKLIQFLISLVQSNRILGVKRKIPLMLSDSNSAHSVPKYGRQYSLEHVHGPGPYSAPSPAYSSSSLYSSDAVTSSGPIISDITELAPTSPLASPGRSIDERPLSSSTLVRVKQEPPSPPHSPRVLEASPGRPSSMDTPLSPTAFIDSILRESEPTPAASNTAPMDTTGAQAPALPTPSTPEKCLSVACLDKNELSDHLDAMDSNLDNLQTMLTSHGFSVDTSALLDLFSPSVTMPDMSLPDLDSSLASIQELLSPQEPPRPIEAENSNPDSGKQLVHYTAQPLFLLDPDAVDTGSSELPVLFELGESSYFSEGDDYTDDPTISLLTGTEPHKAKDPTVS

[2] = target: T2, Carboxy-terminal domain RNA polymerase II polypeptide A small phosphatase 1 (Homo sapiens, UniProt Q9GZU7); assay: inhibitors of CTDSP1, concentration-response testing, biochemical assay, absorbance-based, actives from ultra-high-throughput screening (AID 540297); assay type: functional
T2 sequence (Q9GZU7 whole entry): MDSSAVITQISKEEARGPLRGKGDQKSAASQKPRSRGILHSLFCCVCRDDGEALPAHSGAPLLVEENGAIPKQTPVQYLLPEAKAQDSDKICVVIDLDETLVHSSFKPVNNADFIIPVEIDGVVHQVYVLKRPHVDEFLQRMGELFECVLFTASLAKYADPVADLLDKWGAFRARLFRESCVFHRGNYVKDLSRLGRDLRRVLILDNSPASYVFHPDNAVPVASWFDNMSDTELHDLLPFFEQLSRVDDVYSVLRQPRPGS

[3] = test system: BJ; assay: cytotoxicity toward BJ-TERT-LT-ST fibroblasts, dose response, cell-based, RAS-independent, luminescence (AID 1935); assay type: functional; conditions: Homo sapiens;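 further: BJ fibroblasts immortalized with TERT plus LT and ST oncogenes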
[4] = cytotoxicity toward DRD oncogenic fibroblasts, dose response, cell-based, non-viral oncogenic, luminescence (AID 1934); assay type: functional; conditions: Homo sapiens
[5] = test system: BJ; assay: cells; assay type: functional, cell-based; conditions: Homo sapiens
[6] = test system: BJ; assay: cytotoxicity toward BJ-TERT fibroblasts, dose response, cell-based, RAS-independent, luminescence (AID 1933); assay type: functional; conditions: Homo sapiens
[7] = target: T3, Protein RecA (Mycobacterium tuberculosis, UniProt P9WHJ3); assay: Fluorescence Cell-Free Homogeneous Dose Retest to Identify Inhibitors of RecA-Intein Splicing Activity. [Related pubchem assays (depositor defined):AID2097, AID2223, AID489010, AID492950]; assay type: functional
T3 sequence (P9WHJ3 whole entry): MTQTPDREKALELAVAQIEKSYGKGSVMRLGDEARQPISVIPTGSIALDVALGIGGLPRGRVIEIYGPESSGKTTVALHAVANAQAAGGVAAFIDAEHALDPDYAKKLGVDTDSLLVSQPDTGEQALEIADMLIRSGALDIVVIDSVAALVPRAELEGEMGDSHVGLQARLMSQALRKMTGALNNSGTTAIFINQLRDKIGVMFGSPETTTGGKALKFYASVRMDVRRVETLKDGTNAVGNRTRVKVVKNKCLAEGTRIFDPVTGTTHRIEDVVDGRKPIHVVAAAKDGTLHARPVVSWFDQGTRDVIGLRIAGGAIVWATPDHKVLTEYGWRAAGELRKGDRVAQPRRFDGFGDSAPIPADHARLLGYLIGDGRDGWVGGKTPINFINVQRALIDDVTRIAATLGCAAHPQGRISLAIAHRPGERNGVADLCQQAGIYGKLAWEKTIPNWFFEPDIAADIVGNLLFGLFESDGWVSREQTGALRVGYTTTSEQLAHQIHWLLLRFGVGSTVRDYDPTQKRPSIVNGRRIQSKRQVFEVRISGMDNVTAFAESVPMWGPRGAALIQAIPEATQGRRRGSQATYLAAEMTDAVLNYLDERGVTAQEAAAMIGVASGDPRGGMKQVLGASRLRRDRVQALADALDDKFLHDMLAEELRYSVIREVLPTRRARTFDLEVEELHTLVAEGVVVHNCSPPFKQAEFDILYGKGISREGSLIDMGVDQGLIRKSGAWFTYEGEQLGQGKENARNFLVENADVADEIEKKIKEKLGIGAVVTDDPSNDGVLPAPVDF

[8] = target: T4, Replicative DNA helicase DnaB (Mycobacterium tuberculosis, UniProt P9WMR3); assay: DnaB intein splicing inhibitors, dose response, biochemical, cell-free fluorescence (AID 449749); assay type: functional
T4 sequence (P9WMR3 whole entry): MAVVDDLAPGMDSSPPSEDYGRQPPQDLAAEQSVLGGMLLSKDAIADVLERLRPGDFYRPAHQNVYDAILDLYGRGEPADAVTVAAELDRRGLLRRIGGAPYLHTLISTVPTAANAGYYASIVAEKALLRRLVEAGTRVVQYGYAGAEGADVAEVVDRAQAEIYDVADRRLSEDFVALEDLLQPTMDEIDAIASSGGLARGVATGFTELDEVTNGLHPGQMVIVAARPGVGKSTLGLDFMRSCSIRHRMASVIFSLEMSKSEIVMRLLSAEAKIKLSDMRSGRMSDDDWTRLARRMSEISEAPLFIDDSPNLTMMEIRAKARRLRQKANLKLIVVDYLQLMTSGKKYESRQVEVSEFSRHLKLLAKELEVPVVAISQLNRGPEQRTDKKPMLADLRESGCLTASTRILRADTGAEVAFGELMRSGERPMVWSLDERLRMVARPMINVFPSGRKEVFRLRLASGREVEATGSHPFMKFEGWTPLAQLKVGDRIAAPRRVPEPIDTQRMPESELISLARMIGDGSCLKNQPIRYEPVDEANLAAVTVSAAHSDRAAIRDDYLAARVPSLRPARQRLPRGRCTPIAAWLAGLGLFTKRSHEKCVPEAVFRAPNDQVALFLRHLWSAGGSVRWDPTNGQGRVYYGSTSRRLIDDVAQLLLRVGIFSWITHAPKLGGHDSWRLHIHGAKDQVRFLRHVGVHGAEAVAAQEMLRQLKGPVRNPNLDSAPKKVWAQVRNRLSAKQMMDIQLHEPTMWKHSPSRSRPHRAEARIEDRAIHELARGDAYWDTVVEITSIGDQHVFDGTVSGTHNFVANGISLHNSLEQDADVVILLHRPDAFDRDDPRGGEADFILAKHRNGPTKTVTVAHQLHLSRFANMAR

[9] = HepG2 cell cytotoxicity, dose response, cytotoxicity control for Shn3 inhibitor project, CellTiter-Glo, cherry-picked (AID 624134); assay type: functional, cell-based
[10] = control 3'UTR Renilla luciferase suppression, dose response, counter-screen for Shn3 inhibitor project, cell-based, Clone20-Shn3RL, cherry-picked (AID 624133); assay type: functional
[11] = Shn3 3'UTR reporter inhibitors, dose response, cell-based, Clone20 osteoblasts, firefly luciferase, cherry-picked (AID 624132); assay type: functional;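 further: firefly luciferase luminescence from reporter carrying the Shn3 3'UTR in osteoblasts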
[12] = Luminescence Cell-Based Dose Confirmation HTS to Identify Activators of 5'UTR Stem-Loop Driven Alpha-Synuclein mRNA Translation in H4 Neuroglioblastoma Cells. [Related pubchem assays: 1829 (Project Summary), 1814 (Primary HTS)]; assay type: functional
[13] = test system: H4; assay: Luminescence Cell-Based Dose Response HTS to Identify Activators of 5'UTR Stem-Loop Driven Prion Protein mRNA Translation in H4 Neuroglioblastoma Cells. [Related pubchem assays: 1829 (Project Summary), 1814 (Primary HTS)]; assay type: functional; conditions: Homo sapiens
[14] = Luminescence Cell-Based Dose Response HTS to Identify Activators of Luciferase Translation or Activity in H4 […] Cells. [Related pubchem assays: 1829 (Project Summary), 1814 (Primary HTS)]; assay type: functional
[15] = P. falciparum Dd2 growth inhibitors, dose response, SYBR Green, cherry-picked samples (AID 1159567); assay type: functional, cell-based
[16] = NIH-3T3 fibroblast cytotoxicity, dose response, cytotoxicity control, cell-based, fluorescence, Alamar Blue, secondary assay (AID 2327); assay type: functional;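 further: NIH-3T3 mouse fibroblasts cultured with fluconazole at 8 µg/mL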
[17] = cytotoxicity toward NIH3T3 fibroblasts, dose response, counter-screen, cell-based, ATP luminescence, mouse fibroblasts (AID 2010); assay type: functional;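 further: cells exposed to compound for about 90 hours before reading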
[18] = C. albicans growth with fluconazole, confirmation, fluorescence, retest (AID 2467); assay type: functional, cell-based
[19] = inhibitors of intracellular T. cruzi replication, confirmation, NIH3T3 host cells, beta-gal luminescence (AID 2044); assay type: functional, cell-based;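 further: intracellular parasites grown in NIH/3T3 mouse fibroblasts as host cells; luminescent beta-galactosidase reporter signal from transgenic T. cruzi replicating inside host cells; inhibitors lower the luminescence signal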
[20] = target: Cytochrome P450 2D6 (Homo sapiens, UniProt P10635);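 further: CYP2D6 member of a cytochrome P450 panel assay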
Chain of Cytochrome P450 2D6 (P10635 whole entry): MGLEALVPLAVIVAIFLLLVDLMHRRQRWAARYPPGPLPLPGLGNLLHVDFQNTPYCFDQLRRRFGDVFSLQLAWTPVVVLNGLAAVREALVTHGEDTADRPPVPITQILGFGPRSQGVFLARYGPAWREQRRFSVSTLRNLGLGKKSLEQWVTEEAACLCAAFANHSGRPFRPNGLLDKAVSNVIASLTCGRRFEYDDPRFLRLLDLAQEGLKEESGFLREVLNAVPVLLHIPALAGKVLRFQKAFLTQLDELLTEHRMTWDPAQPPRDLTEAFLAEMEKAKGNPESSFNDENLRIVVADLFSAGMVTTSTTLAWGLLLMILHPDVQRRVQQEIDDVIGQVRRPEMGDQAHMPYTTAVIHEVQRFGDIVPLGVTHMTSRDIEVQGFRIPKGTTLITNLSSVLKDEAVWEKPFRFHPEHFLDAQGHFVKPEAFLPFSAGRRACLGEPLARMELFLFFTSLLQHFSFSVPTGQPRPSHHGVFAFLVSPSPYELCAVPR

COc1cc(NC(=O)Cc2cccs2)ccc1-n1cnnn1
EC50 [1]: > 260 µM (inactive)

CC1CCC(NC(=O)Cn2c(=O)oc3cc(S(=O)(=O)N4CCCC4)ccc32)CC1 (stereo unspecified)
IC50 [2]: 25.5 µM (active)

CC(O)/C=C/c1cccc[n+]1C (stereo unspecified)
IC50 [2]: 12.2 µM (active)

Cc1cc(C)c2nc3sc(C(=O)N4CCOCC4)c(N)c3cc2c1
EC50 [3]: 26 µM (active) | EC50 [4]: 2.62 µM (active) | EC50 [5]: 2.64 µM (active) | EC50 [6]: 2.52 µM (active)

C/C(CC(=O)Nc1cccnc1)=N\NC(=O)c1ccc([N+](=O)[O-])c(Cl)c1
EC50 [7]: 4.18 µM (active) | AC50 [8]: 20.4 µM (active)

CC(C)C[C@H]1CNC(=S)N1CC1CCN(CC2CCC(C(C)(C)C)CC2)CC1 (stereo partly specified)
AC50 [9]: 21.5 µM (active) | AC50 [10]: 4.48 µM (active) | AC50 [11]: 4.05 µM (active)

Cn1c(SCC(=O)NC(=O)NCc2ccco2)nnc1-c1ccccc1
IC50 [2]: 6.39 µM (active)

Cc1ccc(-n2nc(C)c3c2OC(N)=C(C#N)C3c2ccc(F)cc2)cc1 (stereo unspecified)
EC50 [12]: > 120 µM (not active) | EC50 [7]: 6.09 µM (active) | EC50 [13]: > 120 µM (not active) | EC50 [14]: > 120 µM (not active) | AC50 [8]: 14.2 µM (active)

Clc1ccc(SCc2csc(N3CCOCC3)n2)cc1
EC50 [1]: 51.8 µM (active)

CC(C)Oc1cccc(C(=O)C2CCCN(C(=O)c3csnn3)C2)c1 (stereo unspecified)
EC50 [7]: > 380 µM (inactive) | AC50 [8]: > 380 µM (inactive)

COc1ccc(NC(=O)N(C)C[C@H]2Oc3ccc(NC(=O)Nc4ccc(C(F)(F)F)cc4)cc3CC(=O)N([C@H](C)CO)C[C@@H]2C)cc1
AC50 [15]: 3.41 µM (active)

Cc1ccc(NC(=O)c2cnc(SCC(=O)NCC3CCCO3)n(C)c2=O)cc1 (stereo unspecified)
EC50 [7]: 30.9 µM (active) | AC50 [8]: 10.1 µM (active)

CN(C)C1=NC[C@H](Cc2ccccc2)N1CCCCc1ccccc1
AC50 [9]: 58.9 µM (active) | AC50 [10]: 4.5 µM (active) | AC50 [11]: 8.01 µM (active)

O=C1CCCN1CCCNc1c([N+](=O)[O-])nn(-c2ccc(Cl)cc2)[n+]1[O-]
EC50 [16]: 17 µM (active) | EC50 [17]: > 60 µM (inconclusive) | EC50 [18]: > 38 µM (not active) | EC50 [1]: 26.5 µM (active) | EC50 [19]: 0.562 µM (active)

O=C(N/N=C/c1ccc(OC(=O)c2cccs2)cc1)c1ccc(F)cc1
IC50 [2]: > 80 µM (inactive)

Fc1ccc(NC(S)=Nc2cc(Cl)ccc2Cl)cc1
EC50 [1]: > 260 µM (inactive)

CCC1=Nc2cc(C(=O)O)ccc2Sc2ccc(Cl)cc21
EC50 [3]: > 150 µM (not active) | EC50 [4]: > 150 µM (not active) | EC50 [5]: > 150 µM (not active) | EC50 [6]: > 150 µM (not active)

CCOC(=O)CSCC(=O)N1N=C(c2cccs2)CC1c1ccc(F)cc1 (stereo unspecified)
EC50 [7]: 15.1 µM (active) | AC50 [8]: 17.7 µM (active)

CCOC(=O)c1c(NC(=O)C2c3ccccc3Oc3ccccc32)sc(C(C)=O)c1C
AC50 [9]: 61.5 µM (active) | AC50 [10]: 13.6 µM (active) | AC50 [11]: 4.67 µM (active)

c1ccc(CN2C[C@@H]3N[C@H](C2)[C@H]3c2ccc(-c3ccncc3)cc2)cc1
AC50 [15]: 9.92 µM (active)

CCCn1c(SCC(=O)c2cc(OC)ccc2OC)nnc1C(C)C
EC50 [1]: 62.4 µM (active)

COc1ccc(C(=O)C2C(c3ccc(-c4ccccc4[N+](=O)[O-])o3)NC(=O)NC2(O)C(F)(F)F)cc1 (stereo unspecified)
EC50 [7]: 21.5 µM (active) | AC50 [8]: 14.6 µM (active)

CCCc1n(CC(O)COC2CCCCC2)c2ccccc2[n+]1C (stereo unspecified)
IC50 [2]: 14.3 µM (active)

S=C(Nc1ccccc1)Nc1ccc(Cl)cn1
EC50 [1]: > 260 µM (inactive)

Cc1nn(-c2ccccc2)c2c1C(c1ccco1)C(C#N)=C(N)O2 (stereo unspecified)
EC50 [7]: 4.03 µM (active) | AC50 [8]: 5.88 µM (active)

Cc1ccc(NC(=O)CN(C)C(=O)COc2cc(F)ccc2[N+](=O)[O-])cc1
AC50 [9]: > 70 µM (inactive) | AC50 [10]: 16.2 µM (active)

O=C(COc1ccc(-n2cnnn2)cc1)Nc1cccc(Cl)c1Cl
IC50 [2]: 6.36 µM (active)

CCCN1C[C@@H](C)[C@H](OC)CN(C)C(=O)c2ccc(NC(=O)c3ccc4c(c3)OCO4)cc2OC[C@H]1C
AC50 [15]: 3.45 µM (active)

CCOc1cc(/C=N/NC(=O)CSc2nnc(C)s2)ccc1OCc1ccccc1Cl
IC50 [2]: 10.1 µM (active)

Nc1nc(Br)c2c(F)cccc2c1-c1ccc(Cl)cc1
EC50 [1]: > 260 µM (inactive) | AC50 [20]: 3.16 µM (inconclusive)

COc1ccc2c3c([nH]c2c1)[C@H](CO)N(C(=O)Nc1ccc(F)cc1)CC31CCN(C(=O)c2ccccn2)CC1
AC50 [15]: 12.4 µM (active)

O=C(c1ccc(F)cc1)N1CC(=O)N2[C@H](CO)[C@@H](c3ccc(C#Cc4ccc(F)cc4)cc3)[C@@H]2C1
AC50 [15]: 5.03 µM (active)

C/C=C/c1ccc2c(c1)[C@@H]1[C@@H](CCN1C(=O)C1CCCC1)[C@H](CO)N2
AC50 [15]: 12.7 µM (active)

Reference: ChEMBL document CHEMBL1201862, “PubChem BioAssay data set” (2004)
